Source: patent US20060069049A1, “Methods and reagents related to foxo” (President and Fellows of Harvard College, priority 2003, published 2006)

Columns and labels:
atrogin-1 [1] = test: Northern blot of atrogin-1 mRNA in C2C12 myotubes; type: cell-based, mouse
Description: (§1) C2C12 mouse myoblasts (ATCC) were cultured in DMEM 10% FCS (ATCC) until the cells reached confluence. At that time, the medium was replaced with DMEM 2% horse serum (HS) (ATCC) (“differentiation medium”) and incubated for 4 days to induce myotube formation before proceeding with experiments. Pharmacological agents were variously used at the following final concentrations: dexamethasone (1 μM; Sigma), IGF-1 (10 ng/ml; Sigma), LiCl (10 mM; Sigma), LY294002 (10 μM, from 10 mM stock in DMSO, Calbiochem). For infection, myotubes were incubated with adenovirus at a multiplicity of infection (MOI) of 250 in differentiation medium for 18 h, and then medium was replaced. Under these conditions, infection efficiency was greater than 90%. Typical experiments for RNA and protein analysis were performed in 6-well plates. Myotube diameter was quantified as follows: five different fields at 100× magnification were chosen randomly and myotubes were measured using IMAGE software (Scion, Frederick, Md.) as previously performed (Rommel et al., 2001). All data are expressed as the mean of five measurements taken along the length of the myotube±SEM. Comparisons were made using the student's t test, with p<0.05 being considered statistically significant.
After incubation, myotubes were washed in PBS and total RNA was extracted using TRizo1 reagent (Invitrogen) according to the manufacturer's specifications. Northern blotting was performed as described elsewhere (Gomes et al., 2001). Briefly, total RNA was separated on formaldehyde-agarose gels, transferred to Zeta-Probe membrane (Bio-Rad) and UV-crosslinked. Membranes were hybridized with a full length mouse atrogin-1 probe, at 65 ° C., in Church buffer (Church and Gilbert, 1984), and analyzed by using a Fuji Phosphorimager. Blots were stripped and reprobed with a mouse GADPH probe (Ambion) to ensure equal-loading and gel transfer. The relative amounts of the bands were quantified by densitometry.

Foxo1, 3 and Foxo4 = test: Immunoblot of phosphorylated Foxo factors in C2C12 myotubes; type: cell-based, mouse
Description: (§2) Anti-phospho-AKT (Ser473), anti-phospho-mTOR (Ser2448), anti-phospho-p70S6K (Thr389), anti-phospho-Foxo1 (Ser 256), anti-phospho-Foxo4 (Ser 193), anti-AKT, anti-p70S6K and anti-Foxo1 were purchased from Cell Signaling. Anti-phospho-Foxo3 (Thr32) and the FKHR (Foxo1)-GST fusion protein were from Upstate. All primary antibodies were rabbit potyclonal antibodies. HRP-conjugated goat anti-rabbit antibody was from Promega.
C2C12 mouse myoblasts (ATCC) were cultured in DMEM 10% FCS (ATCC) until the cells reached confluence. At that time, the medium was replaced with DMEM 2% horse serum (HS) (ATCC) (“differentiation medium”) and incubated for 4 days to induce myotube formation before proceeding with experiments. […] Myotube diameter was quantified as follows: five different fields at 100× magnification were chosen randomly and myotubes were measured using IMAGE software (Scion, Frederick, Md.) as previously performed (Rommel et al., 2001). All data are expressed as the mean of five measurements taken along the length of the myotube±SEM. […]
Myotube protein was also extracted with TRizo1 reagent according to the manufacturer's instructions. Protein concentration was determined by BCA assay (Pierce). […] The relative amounts of the bands were quantified by densitometry using ImageJ software.

S6K = test: Immunoblot of phosphorylated S6K in C2C12 myotubes; type: cell-based, mouse
Description: as §2, §1
Myotube protein was also extracted with TRizo1 reagent according to the manufacturer's instructions. Protein concentration was determined by BCA assay (Pierce). SDS-PAGE was performed on 4-12% gradient gels (Novex, Invitrogen) loading 20 μg protein/lane. […] The relative amounts of the bands were quantified by densitometry using ImageJ software.

FoxoGST = molecular target: T1, FoxoGST (Homo sapiens, UniProt Q12778); test: Electrophoretic mobility shift assay with purified FoxoGST; type: binding; settings: for competition of FoxoGST-IGFBP1 complex formation by unlabeled oligonucleotide: 100-fold molar excess of cold competitor; for binding of FoxoGST to 32P-labeled oligonucleotide: gel shift; for competition of FoxoGST-AT Foxo 1 complex formation: increasing amounts of unlabeled oligonucleotide
T1 construct: purchased Upstate
T1 sequence (Q12778 whole entry): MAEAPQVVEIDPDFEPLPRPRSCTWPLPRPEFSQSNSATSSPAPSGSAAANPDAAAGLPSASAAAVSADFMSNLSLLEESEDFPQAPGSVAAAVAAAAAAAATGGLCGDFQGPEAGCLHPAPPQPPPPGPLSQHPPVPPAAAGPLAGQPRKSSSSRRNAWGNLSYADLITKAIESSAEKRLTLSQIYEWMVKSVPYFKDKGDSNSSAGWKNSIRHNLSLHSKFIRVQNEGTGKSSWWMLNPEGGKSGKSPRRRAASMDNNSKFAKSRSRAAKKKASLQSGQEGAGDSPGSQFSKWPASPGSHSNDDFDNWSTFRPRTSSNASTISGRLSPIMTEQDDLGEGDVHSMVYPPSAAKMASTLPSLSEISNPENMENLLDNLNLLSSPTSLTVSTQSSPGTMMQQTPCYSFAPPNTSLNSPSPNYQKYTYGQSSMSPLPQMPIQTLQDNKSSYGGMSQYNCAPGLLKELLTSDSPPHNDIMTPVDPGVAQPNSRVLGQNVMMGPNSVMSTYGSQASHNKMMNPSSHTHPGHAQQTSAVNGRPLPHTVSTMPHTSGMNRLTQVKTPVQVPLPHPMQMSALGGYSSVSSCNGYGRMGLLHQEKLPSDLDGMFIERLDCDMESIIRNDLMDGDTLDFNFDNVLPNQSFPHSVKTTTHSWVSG
Source text: Double stranded oligonucleotides were labeled by T4 Polynucleotide kinase and […] (Promega). The following pairs of oligonucleotides were used (Forkhead sites are underlined): IGFBP1: 5′-[…]-3′ (SEQ ID NO:9) and 5′-[…] (SEQ ID NO:10); SP 1:5′-[…]-3′ (SEQ ID NO:11) and 5′[…]-3′ (SEQ ID NO:12); ATFoxo 1: 5′-GGGATAAATACT-GTGCTCGGGCAG-3′ (SEQ ID NO:13) and 5′-[…]-3′ (SEQ ID NO:14). ATFoxo 1mut: 5′-[…]-3′ (SEQ ID NO:15) and 5′ […]-3′ (SEQ ID NO:16). Reactions using the Gel Shift Assay System (Promega) contained the cold competitor (100-fold molar excess over labeled oligonucleotide) and 1 μl of purified FoxoGST (Upstate), and were incubated at room temperature for 10 min. The samples were then mixed with ^32P-labeled oligonucleotides for 20 min and loaded on Novex 6% DNA retardation gels (Invitrogen). After electrophoresis the gels were dried and analyzed using a Fuji Phosphorimager system.

C2C12 myotubes = test: Myotube diameter in C2C12 myotube cultures; type: cell-based, mouse; settings: dexamethasone (1 μM) for 24 hrs
Description: as §1

AKT = test: Immunoblot of phospho-AKT to total AKT in C2C12 myotubes; type: cell-based, mouse; settings: dexamethasone treatment for 24 hrs, densitometric analysis
Description: Myotube protein was also extracted with TRizo1 reagent according to the manufacturer's instructions. Protein concentration was determined by BCA assay (Pierce). SDS-PAGE was performed on 4-12% gradient gels (Novex, Invitrogen) loading 20 μg protein/lane. Westerns were performed as previously (Gomes et al., 2001) and were visualized with ECL detection reagents (Amersham). […] The relative amounts of the bands were quantified by densitometry using ImageJ software.

[2] = molecular target: Constitutively active FOXO3A constitutively active (AKT phosphorylation sites, residues not stated) (Homo sapiens) (UniProt O43524); test: cell_activity; settings: luciferase in adult mouse muscle
Sequence of Constitutively active FOXO3A constitutively active (AKT phosphorylation sites, residues not stated) (Homo sapiens) (O43524 whole entry): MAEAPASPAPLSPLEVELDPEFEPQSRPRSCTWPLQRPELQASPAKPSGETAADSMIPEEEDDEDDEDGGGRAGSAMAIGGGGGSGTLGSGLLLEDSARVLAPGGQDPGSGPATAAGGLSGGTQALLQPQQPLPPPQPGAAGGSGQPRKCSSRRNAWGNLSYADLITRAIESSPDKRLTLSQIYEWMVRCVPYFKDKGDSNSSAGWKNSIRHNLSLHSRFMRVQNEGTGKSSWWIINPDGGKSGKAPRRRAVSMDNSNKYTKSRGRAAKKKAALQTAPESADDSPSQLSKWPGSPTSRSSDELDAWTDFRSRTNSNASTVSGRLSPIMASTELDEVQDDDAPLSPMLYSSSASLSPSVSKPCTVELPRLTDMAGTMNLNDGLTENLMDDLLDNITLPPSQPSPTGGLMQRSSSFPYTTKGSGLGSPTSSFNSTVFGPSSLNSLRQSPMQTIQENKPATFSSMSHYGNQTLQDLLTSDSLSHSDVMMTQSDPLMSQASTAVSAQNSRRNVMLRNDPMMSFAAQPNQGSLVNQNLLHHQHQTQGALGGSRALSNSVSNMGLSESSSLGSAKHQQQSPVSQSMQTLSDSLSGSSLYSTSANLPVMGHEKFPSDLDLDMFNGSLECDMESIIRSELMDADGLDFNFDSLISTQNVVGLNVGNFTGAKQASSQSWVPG

[3] = molecular target: Wild-type FOXO3A (Homo sapiens) (UniProt O43524); test: cell_activity; settings: luciferase in adult mouse muscle
Sequence of Wild-type FOXO3A (Homo sapiens) (O43524 whole entry): as above

atrogin-1 [4] = settings: reported from Sacheck et al. (manuscript submitted) or Li et al. 2003a; cited from earlier work

With “IGF-1: insulin-like growth factor-1, used at 10 ng/ml (Sigma)” the “effect on atrogin-1 mRNA in either model of atrophy” value (atrogin-1 [1]; IGF-1 10 ng/ml added to starved (6 hrs) or dexamethasone-treated (24 hrs) myotubes) was “suppressed atrogin-1 mRNA to the level in untreated myotubes”, the “effect of IGF-1 on atrogin-1 mRNA” value (atrogin-1 [1]; cells expressing the constitutively active Foxo3) was “did not reduce” and the “decrease in atrogin-1 mRNA content by IGF-1” value (atrogin-1 [1]; cells expressing the wild type Foxo3, IGF-1 10 ng/ml) was 3 fold. The “effect on phosphorylated Foxo1, 3 and 4 in either model of atrophy” value (Foxo1, 3 and Foxo4; IGF-1 10 ng/ml, starved or dexamethasone-treated myotubes) was “increased the levels of phosphorylated Foxo1, 3, and 4”, the “S6K phosphorylation after IGF-1 addition” value (S6K; dexamethasone-treated cultures) was “restored S6K phosphorylation” and the “S6K phosphorylation after IGF-1 addition” value (S6K; starved cells) was “remained largely dephosphorylated”.

In the case of “ATFoxo 1mut: mutated version of the site, ATCACTA (SEQ ID NO:15/16) (chain 1 GGGATCACTACTGTGCTCGGGCAG; chain 2 CTGCCCGAGCACAGTAGTGATCCC; listed as DNA, chemistry not fully specified)”, the “competition of FoxoGST-IGFBP1 complex formation by unlabeled oligonucleotide” value (“competition … by unlabeled oligonucleotide” below) (FoxoGST) is reported as “did not prevent complex formation”, the “binding of FoxoGST to 32P-labeled oligonucleotide” value (shortened to “binding of FoxoGST”) (FoxoGST) is reported as “did not bind” and the “competition of FoxoGST-AT Foxo 1 complex formation” value (FoxoGST) is reported as “not”.

For C[C@@H]1C[C@H]2[C@@H]3CCC4=CC(=O)C=C[C@]4(C)[C@@]3(F)[C@@H](O)C[C@]2(C)[C@@]1(O)C(=O)CO [dexamethasone, reference compound], the “increase in atrogin-1 mRNA content” value (atrogin-1 [1]; cultured myotubes treated with dexamethasone (1 μM) for 24 hrs) was 2-3 fold, the “reduction in mean myotube diameter” value (C2C12 myotubes) was 40% and the “fall in ratio of phospho-AKT to total AKT” value (AKT) was 30%. For the same molecule, the “decrease in levels of phosphorylated Foxo1 and 3” value (Foxo1, 3 and Foxo4; glucocorticoid treatment 24 hrs) was “at least 30%” and the “decrease in level of phosphorylated S6K” value (S6K; dexamethasone treatment 24 hrs) was 10%.

For [Cl-].[Li+] [LiCl, reference compound], the “effect on atrogin-1 induction by dexamethasone” value (atrogin-1 [1]; myotubes, 1 μM dexamethasone 24 hrs) was “unable to decrease”.

With “ATFoxo 1: double stranded oligonucleotide with atrogin-1 promoter forkhead site ATAAATA (SEQ ID NO:13/14) (chain 1 GGGATAAATACTGTGCTCGGGCAG; chain 2 CTGCCCGAGCACAGTATTTATCCC; listed as DNA, chemistry not fully specified)” the “competition … by unlabeled oligonucleotide” value (FoxoGST) was “markedly reduced”, the “binding of FoxoGST” value (FoxoGST) was “bound” and the “competition of FoxoGST-AT Foxo 1 complex formation” value (FoxoGST) was “able to block”.

Molecule 3.5 kb atrogin-1 promoter has an activity [2] greater than 20 fold and an activity [3] of 3 fold.

For OO [hydrogen peroxide], the “effect on atrogin-1 expression in myotubes” value (atrogin-1 [4]) is listed as “expression of atrogin-1 rose”.

With “oligonucleotide containing an SP1 binding site: unrelated oligonucleotide containing an SP1 binding site (SEQ ID NO:11/12) (chain 1 ATTCGATCGGGGCGGGGCGAG; chain 2 CTCGCCCCGCCCCGATCGTAA; listed as DNA, chemistry not fully specified) [reference compound]” the “competition … by unlabeled oligonucleotide” value (FoxoGST) was “did not prevent complex formation”.

B1: IGFBP1 oligonucleotide: control oligonucleotide containing a known forkhead site from the IGFBP1 promoter (SEQ ID NO:9/10) (nucleic acid)
chain 1: CTAGCAAGCAAAACAAACTTATTTTGAACACGGGG
chain 2: CCCCGTGTTCAAAATAAGTTTGTTTTGCTTGCTAG
modifications: listed as DNA, chemistry not fully specified
In the case of B1, the “competition … by unlabeled oligonucleotide” value (FoxoGST) is reported as “prevented formation” and the “binding of FoxoGST” value (FoxoGST) is reported as “bound”.
